Consider 6 compounds from patent US10660967B2, “Curcumin conjugates and methods of use thereof” (priority 2016, dated 2020).

For assay [1], the system named is Streptococcus pyogenes ATCC19615. The assay is described as follows: Antimicrobial MIC, agar dilution.
The subject of assay [2] is PC3 (prostate) carcinoma cell line. The assay is described as follows: Anti-tumor properties, MTT. The format is cell-based. The note with it: Homo sapiens.
Assay [3] relates to PHA-stimulated splenocytes. The experiment in a line: Proliferative response of PHA-stimulated splenocytes (MTT assay). In kind it is cell-based. The note with it: PHA 5 μg/ml, 72 hr; compounds at 5 μM (method says 10 μM); ratio of O.D. versus vehicle control. The method, boiled down:
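Readout was MTT absorbance (570 nm, reference 690 nm) after 72 h culture at 37° C. Splenocytes at 1×10^6 cells/well received test compound (10 μM final) alone or plus PHA 5 μg/ml as T-cell mitogen. Values are OD ratios of compound over vehicle control (stimulation index).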
(In general: Tetrazolium assays rely on reduction of a dye to a coloured formazan, in cell work by metabolically active cells.)

Assay [4] deals with lipopolysaccharide-stimulated peritoneal macrophages. The assay is described as follows: Production of nitric oxide by lipopolysaccharide-stimulated peritoneal macrophages (Greiss reagent). The note with it: LPS-stimulated peritoneal macrophages; for Nitric oxide (nitrite) concentration, μM (average ± SD): 24 h, nitrite by Greiss reagent. More on the design: Potency (%): % inhibition of nitric oxide production relative to lipopolysaccharide-stimulated macrophages: concentration or dose not given beside the values. In kind it is cell-based. The method in brief:
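NO output was quantified as accumulated nitrite, reacting supernatant with Greiss reagent (sulfanilamide/α-naphthylamine) and reading at 532 nm. Beforehand, cells had been incubated 24 h at 37° C. in nitrite-free, 0.1% BSA medium with 0.5–10 ng/ml LPS, with or without catecholamines at […].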

For assay [5], the system named is A-549 (lung) carcinoma cell line. The assay is described as follows: Anti-tumor properties, MTT. The note with it: Homo sapiens, A549. The format is cell-based.
Assay [6] deals with Candida albicans (local isolate). The assay is described as follows: Antimicrobial MIC, agar dilution. The note with it: Candida albicans, read-out: Minimum inhibitory concentration (MIC). In general terms: In agar dilution, organisms are placed on agar that contains the substance at set levels.
Assay [7] relates to Salmonella typhi ATCC19430. The experiment in a line: Antimicrobial MIC, agar dilution. In kind it is cell-based. The note with it: Salmonella enterica, read-out: Minimum inhibitory concentration (MIC).
Assay [8] relates to Staphylococcus aureus ATCC25923. The experiment in a line: Antimicrobial MIC, agar dilution.
In assay [9] the test system is HCT116 (colon) carcinoma cell line. The assay is described as follows: Anti-tumor properties, MTT. In kind it is cell-based. The note with it: Homo sapiens, HCT-116; read-out: IC50 (μM) HCT116 (colon). The method in brief: (§1)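 Cells seeded at 10×10^3 per well for 24 h, then exposed to compound in serum-free medium (final up to 100 μM, 0.5% DMSO vehicle) for 72 h in triplicate. Viability by MTT reduction (4 h, SDS solubilised), absorbance 595 nm/ref 620 nm; IC50 from survival curves.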

The test system of assay [10] is MCF7 (breast) carcinoma cell line. The assay is described as follows: Anti-tumor properties, MTT. The note with it: Homo sapiens, MCF7; read-out: IC50 (μM) MCF7 (breast). The format is cell-based. The method in brief:
as §1

Assay [11] has as its system HepG2 (hepatocellular) carcinoma cell line. The experiment in a line: Anti-tumor properties, MTT. In kind it is cell-based. The note with it: Homo sapiens, HepG2; read-out: IC50 (μM) HepG2 (liver). The method in brief: as §1
The subject of assay [12] is Pseudomonas aeruginosa ATCC27853. The experiment in a line: Antimicrobial MIC, agar dilution.
The mark [13] stands for this setting: ATCC19615, 18 h, read-out: Minimum inhibitory concentration (MIC).
[14] abbreviates: ATCC19615, read-out: Minimum inhibitory concentration (MIC).
The mark [15] stands for this setting: ATCC25923, 18 h, read-out: Minimum inhibitory concentration (MIC).
The mark [16] stands for this setting: ATCC25923, read-out: Minimum inhibitory concentration (MIC).
[17] abbreviates: ATCC27853, 18 h, read-out: Minimum inhibitory concentration (MIC).
The mark [18] stands for this setting: ATCC27853, read-out: Minimum inhibitory concentration (MIC).

Where two headings read alike, the source gives them in different places.

With `COc1cc(/C=C/C(=O)CC(=O)/C=C/c2ccc(OC(=O)[C@@H](NC(=O)OC(C)(C)C)C(C)C)c(OC)c2)ccc1OC(=O)[C@@H](NC(=O)OC(C)(C)C)C(C)C` [Boc-L-Val-Cur, ((1E,6E)-3,5-dioxohepta-1,6-diene-1,7-diyl)bis(2-methoxy-4,1-phenylene) (2S,2′S)-bis(2-((tert-butoxycarbonyl)amino)-3-methylbutanoate)], the MIC was 2 µg/mL in assay [1] (setting [13]); 2.61 µM in assay [1] (setting [14]); 1 µg/mL in assay [6] (18 h); 1.3 µM in assay [6]; 0.25 µg/mL in assay [7] (18 h); 0.326 µM in [7]. In addition, the MIC in [8] (setting [15]) amounted to 0.25 µg/mL; in assay [8] (setting [16]) it was 0.326 µM; in assay [12] (setting [17]), 2 µg/mL; in assay [12] (setting [18]) it was 2.61 µM. Besides, the IC50 in assay [2] was more than 100 µM; in [5], more than 100 µM; in assay [9], more than 100 µM; in [10] it was not below 100 µM; in [11] it was more than 100 µM. Further, in assay [3], the “Stimulation Index (average ± SD)” value was 1.84 ± 0.06. In addition, the “Potency (%): % inhibition of nitric oxide production relative to lipopolysaccharide-stimulated macrophages” value in assay [4] stood at 29.35%. The “Nitric oxide (nitrite) concentration, μM (average ± SD)” value (“Nitric oxide … (average ± SD)” below) in [4] is 19.29 ± 0.39 µM.

As to `COc1cc(/C=C/C(=O)CC(=O)/C=C/c2ccc(OC(=O)CNC(=O)OC(C)(C)C)c(OC)c2)ccc1OC(=O)CNC(=O)OC(C)(C)C` [Boc-Gly-Cur, ((1E,6E)-3,5-dioxohepta-1,6-diene-1,7-diyl)bis(2-methoxy-4,1-phenylene) bis(2-((tert-butoxycarbonyl)amino)acetate)], the MIC was 1 µg/mL in assay [1] (setting [13]); 1.47 µM in assay [1] (setting [14]); 0.5 µg/mL in assay [6] (18 h); 0.732 µM in assay [6]; 0.125 µg/mL in assay [7] (18 h); 0.183 µM in [7]. The MIC was determined as 0.25 µg/mL in assay [8] (setting [15]), 0.366 µM in [8] (setting [16]), 0.25 µg/mL in assay [12] (setting [17]) and 0.366 µM in assay [12] (setting [18]). The IC50 in assay [2] is more than 100 µM; in assay [5], 80.9 µM; in assay [9], more than 100 µM; in assay [10], 17.2 µM; in [11], more than 100 µM. In addition, the “Stimulation Index (average ± SD)” value in assay [3] was 2.11 ± 0.16. Further, the “Potency (%): % inhibition of nitric oxide production relative to lipopolysaccharide-stimulated macrophages” value in assay [4] is recorded as 33.65%. Further, the “Nitric oxide … (average ± SD)” value in [4] came out at 18.12 ± 1.41 µM.

Turning to `CC[C@H](C)[C@H](NC(=O)OC(C)(C)C)C(=O)Oc1ccc(/C=C/C(=O)CC(=O)/C=C/c2ccc(OC(=O)[C@@H](NC(=O)OC(C)(C)C)[C@@H](C)CC)c(OC)c2)cc1OC` [Boc-L-Ile-Cur, ((1E,6E)-3,5-dioxohepta-1,6-diene-1,7-diyl)bis(2-methoxy-4,1-phenylene) (2S,2′S,3S,3′S)-bis(2-((tert-butoxycarbonyl)amino)-3-methylpentanoate)], the MIC in [1] (setting [13]) was determined as 0.25 µg/mL; in [1] (setting [14]), 0.314 µM; in [6] (18 h), 2 µg/mL; in assay [6], 2.52 µM; in [7] (18 h), 0.125 µg/mL; in assay [7] it was 0.157 µM. The MIC in assay [8] (setting [15]) was found to be 0.125 µg/mL; in [8] (setting [16]), 0.157 µM; in assay [12] (setting [17]), 1 µg/mL; in assay [12] (setting [18]), 1.26 µM. The half-maximal inhibitory concentration (IC50) in assay [2] is more than 100 µM; in [5] it was more than 100 µM; in [9], more than 100 µM; in assay [10] it was 49.6 µM; in [11], more than 100 µM. In [3], the “Stimulation Index (average ± SD)” value is 2.07 ± 0.10. Moreover, the “Potency (%): % inhibition of nitric oxide production relative to lipopolysaccharide-stimulated macrophages” value in assay [4] came to 23.82%. Moreover, the “Nitric oxide … (average ± SD)” value in [4] is 20.81 ± 0.68 µM.

`COc1cc(/C=C/C(=O)CC(=O)/C=C/c2ccc(OC(=O)C(C)NC(=O)OC(C)(C)C)c(OC)c2)ccc1OC(=O)C(C)NC(=O)OC(C)(C)C` (racemic) [Boc-DL-Ala-Cur, ((1E,6E)-3,5-dioxohepta-1,6-diene-1,7-diyl)bis(2-methoxy-4,1-phenylene) bis(2-((tert-butoxycarbonyl)amino)propanoate)]: the MIC is 0.125 µg/mL in [1] (setting [13]); 0.176 µM in [1] (setting [14]); 0.5 µg/mL in assay [6] (18 h); 0.703 µM in [6]; 0.25 µg/mL in [7] (18 h); 0.352 µM in assay [7]. Besides, the MIC in [8] (setting [15]) worked out at 0.25 µg/mL; in assay [8] (setting [16]), 0.352 µM; in assay [12] (setting [17]), 0.25 µg/mL; in [12] (setting [18]), 0.352 µM. In addition, the IC50 is more than 100 µM in [2]; 73.9 µM in [5]; more than 100 µM in [9]; 34.8 µM in [10]; more than 100 µM in assay [11]. Also, the “Stimulation Index (average ± SD)” value in [3] was found to be 1.78 ± 0.07. The “Potency (%): % inhibition of nitric oxide production relative to lipopolysaccharide-stimulated macrophages” value in [4] is recorded as 30.88%. The “Nitric oxide … (average ± SD)” value in assay [4] is 18.88 ± 0.46 µM.

For the compound `COc1cc(/C=C/C(=O)CC(=O)/C=C/c2ccc(OC(=O)[C@@H](C)NC(=O)OC(C)(C)C)c(OC)c2)ccc1OC(=O)[C@@H](C)NC(=O)OC(C)(C)C` [Boc-D-Ala-Cur, ((1E,6E)-3,5-dioxohepta-1,6-diene-1,7-diyl)bis(2-methoxy-4,1-phenylene) (2R,2′R)-bis(2-((tert-butoxycarbonyl)amino)propanoate)], the MIC in assay [1] (setting [13]) was 1 µg/mL; in [1] (setting [14]), 1.41 µM; in [6] (18 h), 0.5 µg/mL; in assay [6], 0.703 µM; in assay [7] (18 h) it was 0.25 µg/mL; in assay [7], 0.352 µM. The MIC was determined as 0.125 µg/mL in assay [8] (setting [15]), 0.176 µM in [8] (setting [16]), 0.25 µg/mL in assay [12] (setting [17]) and 0.352 µM in assay [12] (setting [18]). Moreover, the IC50 in [2] was more than 100 µM; in assay [5] it was 85.4 µM; in [9], more than 100 µM; in assay [10], 29.2 µM; in assay [11], more than 100 µM. Further, the “Stimulation Index (average ± SD)” value in assay [3] was 2.07 ± 0.12. In addition, the “Potency (%): % inhibition of nitric oxide production relative to lipopolysaccharide-stimulated macrophages” value in [4] is on record as 23.82%. Moreover, the “Nitric oxide … (average ± SD)” value in assay [4] is 20.81 ± 0.82 µM.

In the case of `COc1cc(/C=C/C(=O)CC(=O)/C=C/c2ccc(OC(=O)CCNC(=O)OC(C)(C)C)c(OC)c2)ccc1OC(=O)CCNC(=O)OC(C)(C)C` [Boc-β-Ala-Cur, ((1E,6E)-3,5-dioxohepta-1,6-diene-1,7-diyl)bis(2-methoxy-4,1-phenylene) bis(3-((tert-butoxycarbonyl)amino)propanoate)], the MIC in assay [1] (setting [13]) worked out at 0.25 µg/mL; in assay [1] (setting [14]) it was 0.352 µM; in assay [6] (18 h) it was 0.5 µg/mL; in [6] it was 0.703 µM; in [7] (18 h) it was 0.5 µg/mL; in assay [7], 0.703 µM. Also, the MIC in assay [8] (setting [15]) is 0.25 µg/mL; in assay [8] (setting [16]), 0.352 µM; in [12] (setting [17]), 0.25 µg/mL; in assay [12] (setting [18]) it was 0.352 µM. For the same compound, the 50% inhibitory concentration (IC50) in [2] was more than 100 µM; in assay [5] it was more than 100 µM; in [9], more than 100 µM; in [10], 13.2 µM; in assay [11] it was more than 100 µM. Besides, the “Stimulation Index (average ± SD)” value in assay [3] worked out at 1.70 ± 0.24. Moreover, the “Potency (%): % inhibition of nitric oxide production relative to lipopolysaccharide-stimulated macrophages” value in [4] came to 32.81%. Besides, the “Nitric oxide … (average ± SD)” value in assay [4] was found to be 18.35 ± 1.61 µM.

The IC50 is the concentration at which inhibition is half-maximal.
